In PubChem BioAssay (NCI):
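Interpolation was linear, between the two tested concentrations surrounding the appropriate level; five concentrations were tested over 48 hours in 96-well plates. GI50 marks 50% less growth. TGI denotes the concentration required for complete inhibition of growth.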

Tests used:
Assay in all cases: DTP human tumour cell line panel, 48 h
786-0 renal = tested on: 786-0 renal
A498 renal = tested on: A498 renal
A549 NSCLC = tested on: A549 NSCLC
ACHN renal = tested on: ACHN renal
BT-549 breast = tested on: BT-549 breast
COLO 205 colon = tested on: COLO 205 colon
DU-145 prostate = tested on: DU-145 prostate
EKVX NSCLC = tested on: EKVX NSCLC
HCC-2998 colon = tested on: HCC-2998 colon
HCT-116 colon = tested on: HCT-116 colon
HCT-15 colon = tested on: HCT-15 colon
HL-60(TB) leukemia = tested on: HL-60(TB) leukemia
HOP-62 NSCLC = tested on: HOP-62 NSCLC
HOP-92 NSCLC = tested on: HOP-92 NSCLC
HS 578T breast = tested on: HS 578T breast
HT29 colon = tested on: HT29 colon
IGROV1 ovarian = tested on: IGROV1 ovarian
K-562 leukemia = tested on: K-562 leukemia
KM12 colon = tested on: KM12 colon
M14 melanoma = tested on: M14 melanoma
MCF7 breast = tested on: MCF7 breast
MDA-MB-231 breast = tested on: MDA-MB-231 breast
MDA-MB-435 = tested on: MDA-MB-435
MDA-N = tested on: MDA-N
MOLT-4 leukemia = tested on: MOLT-4 leukemia
NCI-H226 lung = tested on: NCI-H226 lung
NCI-H23 lung = tested on: NCI-H23 lung
NCI-H460 lung = tested on: NCI-H460 lung
NCI/ADR-RES ovarian = tested on: NCI/ADR-RES ovarian
OVCAR-3 ovarian = tested on: OVCAR-3 ovarian
OVCAR-4 ovarian = tested on: OVCAR-4 ovarian
OVCAR-5 ovarian = tested on: OVCAR-5 ovarian
OVCAR-8 ovarian = tested on: OVCAR-8 ovarian
RPMI-8226 leukemia = tested on: RPMI-8226 leukemia
RXF 393 renal = tested on: RXF 393 renal
SF-268 CNS = tested on: SF-268 CNS
SF-295 CNS = tested on: SF-295 CNS
SF-539 CNS = tested on: SF-539 CNS
SK-MEL-2 melanoma = tested on: SK-MEL-2 melanoma
SK-MEL-28 melanoma = tested on: SK-MEL-28 melanoma
SK-MEL-5 melanoma = tested on: SK-MEL-5 melanoma
SK-OV-3 ovarian = tested on: SK-OV-3 ovarian
SN12C renal = tested on: SN12C renal
SNB-19 CNS = tested on: SNB-19 CNS
SNB-75 CNS = tested on: SNB-75 CNS
SW-620 colon = tested on: SW-620 colon
T-47D breast = tested on: T-47D breast
TK-10 renal = tested on: TK-10 renal
U251 CNS = tested on: U251 CNS
UACC-257 melanoma = tested on: UACC-257 melanoma
UACC-62 melanoma = tested on: UACC-62 melanoma
UO-31 renal = tested on: UO-31 renal
CAKI-1 renal = tested on: CAKI-1 renal
CCRF-CEM leukemia = tested on: CCRF-CEM leukemia
LOX IMVI melanoma = tested on: LOX IMVI melanoma
MALME-3M melanoma = tested on: MALME-3M melanoma
PC-3 prostate = tested on: PC-3 prostate

COc1ccccc1N1C(=O)CSC1c1c[nH]c2ccccc12 (configuration not stated)
TGI (786-0 renal): > 100 µM | TGI (A498 renal): > 100 µM | TGI (A549 NSCLC): > 100 µM | TGI (ACHN renal): > 100 µM | TGI (BT-549 breast): > 100 µM | TGI (COLO 205 colon): > 100 µM | TGI (DU-145 prostate): > 100 µM | TGI (EKVX NSCLC): > 100 µM | TGI (HCC-2998 colon): > 100 µM | TGI (HCT-116 colon): > 100 µM | TGI (HCT-15 colon): > 100 µM | TGI (HL-60(TB) leukemia): > 100 µM | TGI (HOP-62 NSCLC): > 100 µM | TGI (HOP-92 NSCLC): > 100 µM | TGI (HS 578T breast): > 100 µM | TGI (HT29 colon): > 100 µM | TGI (IGROV1 ovarian): > 100 µM | TGI (K-562 leukemia): > 100 µM | TGI (KM12 colon): > 100 µM | TGI (M14 melanoma): > 100 µM | TGI (MCF7 breast): > 100 µM | TGI (MDA-MB-231 breast): > 100 µM | TGI (MDA-MB-435): > 100 µM | TGI (MDA-N): > 100 µM | TGI (MOLT-4 leukemia): > 100 µM | TGI (NCI-H226 lung): > 100 µM | TGI (NCI-H23 lung): > 100 µM | TGI (NCI-H460 lung): > 100 µM | TGI (NCI/ADR-RES ovarian): > 100 µM | TGI (OVCAR-3 ovarian): > 100 µM | TGI (OVCAR-4 ovarian): > 100 µM | TGI (OVCAR-5 ovarian): > 100 µM | TGI (OVCAR-8 ovarian): > 100 µM | TGI (RPMI-8226 leukemia): > 100 µM | TGI (RXF 393 renal): > 100 µM | TGI (SF-268 CNS): > 100 µM | TGI (SF-295 CNS): > 100 µM | TGI (SF-539 CNS): > 100 µM | TGI (SK-MEL-2 melanoma): > 100 µM | TGI (SK-MEL-28 melanoma): > 100 µM | TGI (SK-MEL-5 melanoma): > 100 µM | TGI (SK-OV-3 ovarian): > 100 µM | TGI (SN12C renal): > 100 µM | TGI (SNB-19 CNS): > 100 µM | TGI (SNB-75 CNS): > 100 µM | TGI (SW-620 colon): > 100 µM | TGI (T-47D breast): > 100 µM | TGI (TK-10 renal): > 100 µM | TGI (U251 CNS): > 100 µM | TGI (UACC-257 melanoma): > 100 µM | TGI (UACC-62 melanoma): > 100 µM | TGI (UO-31 renal): > 100 µM

S=C(S)NCCNC(=S)S.[Cu+2]
GI50 (786-0 renal): 63.2 µM | TGI (786-0 renal): > 100 µM | GI50 (A498 renal): 57.6 µM | TGI (A498 renal): > 100 µM | GI50 (A549 NSCLC): 56.6 µM | TGI (A549 NSCLC): > 100 µM | GI50 (ACHN renal): > 100 µM | TGI (ACHN renal): > 100 µM | GI50 (CAKI-1 renal): > 100 µM | TGI (CAKI-1 renal): > 100 µM | GI50 (CCRF-CEM leukemia): > 100 µM | TGI (CCRF-CEM leukemia): > 100 µM | GI50 (COLO 205 colon): > 100 µM | TGI (COLO 205 colon): > 100 µM | GI50 (DU-145 prostate): > 100 µM | TGI (DU-145 prostate): > 100 µM | GI50 (EKVX NSCLC): 70.1 µM | TGI (EKVX NSCLC): > 100 µM | GI50 (HCC-2998 colon): 59.3 µM | TGI (HCC-2998 colon): > 100 µM | GI50 (HCT-116 colon): > 100 µM | TGI (HCT-116 colon): > 100 µM | GI50 (HCT-15 colon): 51.6 µM | TGI (HCT-15 colon): > 100 µM | GI50 (HL-60(TB) leukemia): > 100 µM | TGI (HL-60(TB) leukemia): > 100 µM | GI50 (HOP-62 NSCLC): 68.6 µM | TGI (HOP-62 NSCLC): > 100 µM | GI50 (HOP-92 NSCLC): > 100 µM | TGI (HOP-92 NSCLC): > 100 µM | GI50 (HS 578T breast): > 100 µM | TGI (HS 578T breast): > 100 µM | GI50 (HT29 colon): > 100 µM | TGI (HT29 colon): > 100 µM | GI50 (IGROV1 ovarian): 93.2 µM | TGI (IGROV1 ovarian): > 100 µM | GI50 (K-562 leukemia): > 100 µM | TGI (K-562 leukemia): > 100 µM | GI50 (KM12 colon): > 100 µM | TGI (KM12 colon): > 100 µM | GI50 (LOX IMVI melanoma): 31.8 µM | TGI (LOX IMVI melanoma): > 100 µM | GI50 (M14 melanoma): > 100 µM | TGI (M14 melanoma): > 100 µM | GI50 (MALME-3M melanoma): > 100 µM | TGI (MALME-3M melanoma): > 100 µM | GI50 (MCF7 breast): 27.4 µM | TGI (MCF7 breast): 78.2 µM | GI50 (MDA-MB-231 breast): > 100 µM | TGI (MDA-MB-231 breast): > 100 µM | GI50 (MDA-MB-435): 29.7 µM | TGI (MDA-MB-435): 79.2 µM | GI50 (MDA-N): 25.7 µM | TGI (MDA-N): 69.5 µM | GI50 (MOLT-4 leukemia): > 100 µM | TGI (MOLT-4 leukemia): > 100 µM | GI50 (NCI-H226 lung): > 100 µM | TGI (NCI-H226 lung): > 100 µM | GI50 (NCI-H23 lung): > 100 µM | TGI (NCI-H23 lung): > 100 µM | GI50 (NCI-H460 lung): 29.7 µM | TGI (NCI-H460 lung): 89.3 µM | GI50 (NCI/ADR-RES ovarian): > 100 µM | TGI (NCI/ADR-RES ovarian): > 100 µM | GI50 (OVCAR-3 ovarian): > 100 µM | TGI (OVCAR-3 ovarian): > 100 µM | GI50 (OVCAR-4 ovarian): 36.1 µM | TGI (OVCAR-4 ovarian): > 100 µM | GI50 (OVCAR-5 ovarian): 52.4 µM | TGI (OVCAR-5 ovarian): > 100 µM | GI50 (OVCAR-8 ovarian): > 100 µM | TGI (OVCAR-8 ovarian): > 100 µM | GI50 (PC-3 prostate): > 100 µM | TGI (PC-3 prostate): > 100 µM | GI50 (RPMI-8226 leukemia): > 100 µM | TGI (RPMI-8226 leukemia): > 100 µM | GI50 (RXF 393 renal): 36.1 µM | TGI (RXF 393 renal): > 100 µM | GI50 (SF-268 CNS): > 100 µM | TGI (SF-268 CNS): > 100 µM | GI50 (SF-295 CNS): > 100 µM | TGI (SF-295 CNS): > 100 µM | GI50 (SF-539 CNS): > 100 µM | TGI (SF-539 CNS): > 100 µM | GI50 (SK-MEL-28 melanoma): > 100 µM | TGI (SK-MEL-28 melanoma): > 100 µM | GI50 (SK-MEL-5 melanoma): 25.8 µM | TGI (SK-MEL-5 melanoma): 58.5 µM | GI50 (SK-OV-3 ovarian): 8.24 µM | TGI (SK-OV-3 ovarian): 23.1 µM | GI50 (SN12C renal): > 100 µM | TGI (SN12C renal): > 100 µM | GI50 (SNB-19 CNS): > 100 µM | TGI (SNB-19 CNS): > 100 µM | GI50 (SNB-75 CNS): > 100 µM | TGI (SNB-75 CNS): > 100 µM | GI50 (SW-620 colon): 88.6 µM | TGI (SW-620 colon): > 100 µM | GI50 (T-47D breast): > 100 µM | TGI (T-47D breast): > 100 µM | GI50 (TK-10 renal): > 100 µM | TGI (TK-10 renal): > 100 µM | GI50 (U251 CNS): > 100 µM | TGI (U251 CNS): > 100 µM | GI50 (UACC-257 melanoma): > 100 µM | TGI (UACC-257 melanoma): > 100 µM | GI50 (UACC-62 melanoma): 33.9 µM | TGI (UACC-62 melanoma): > 100 µM | GI50 (UO-31 renal): > 100 µM | TGI (UO-31 renal): > 100 µM
